What was measured:
SKBR3 cells [1] = assay: Internalization rate with anti-HER2 antibody combination; assay type: cell-based
Method: For the assay, 40,000 SKBR3 cells were plated in DMEM media containing 10% FBS, in each well of three 96 well plates (black colored plates with clear bottomed wells) and allowed to attach overnight at 37° in 5% CO2. The next day the cells were treated with antibodies as follows. […] The unbound antibody was removed by washing the cells two times with ice cold media. For detection, 5 μg/ml of an Alexa 647 labelled anti-human IgG Fab fragment was added to each well in ice cold media and incubated on ice for 1 hr. The unbound secondary antibody was removed by washing each well 2 times with ice cold media. […] Each treatment was carried out in triplicate. One set of wells were treated with the Alexa 647 labelled anti-human IgG monovalent Fab fragment alone, and the fluorescence measured in these wells was used to subtract background fluorescence.
One plate was left on ice to determine the time 0 values for each treatment, and the other plates were incubated at 37° C. After 1.5 hours, one plate from 37° C., and the time 0 plate, were washed 2 times with ice cold PBS and scanned using the 680 nm channel of a Licor Odyssey scanner. The fluorescence measured in each well is used as the total fluorescence for each treatment. The cells were then acid washed 2 times with 100 mM glycine, 50 mM KCl, and 20 mM […], pH2.2, then washed two times with ice cold PBS to remove the surface bound antibodies. The plates were scanned again to determine the amount of internalized fluorescence in each well. The 24 hour plates were analyzed the same way the next day.

[2] = target: T1, HER2 protein in SKBR3 cells (Homo sapiens, UniProt P04626); assay: HER2 degradation, western analysis; assay type: cell-based; conditions: 4 hours; for HER2 remaining: 10 μg/ml each, combined with trastuzumab and pertuzumab; for full length HER2, percentage of untreated cells: 10 μg/ml, test antibody alone or in combination with trastuzumab
T1 construct: endogenous in cells; host or cells: SKBR3
Method: The effect of anti-HER2 antibodies on HER2 degradation in SKBR3 cells was determined by western analysis after antibody treatment. 300,000 SKBR3 cells were plated in DMEM media with 10% FBS in each well of 6 well culture dishes and grown overnight at 37° in 5% CO2 atmosphere. The media was removed and replaced with fresh media containing 10 μg/ml of each antibody and incubated for 4 hours. The cells were washed once with ice cold PBS and lysed by addition of 200 μl of buffer containing 50 mM Tris HCl, pH 7.4, 150 mM NaCl, 1% Triton X-100, cOmplete Protease Inhibitor cocktail tablets (Roche, Indianapolis, Ind.) and PhosSTOP phosphatase Inhibitor cocktail tablets (Roche, Indianapolis, Ind.). Lysates were centrifuged at 15,000 rpm for 15 minutes at 4° to remove insoluble debris. […] The separated proteins were transferred to a nitrocellulose membrane on a semi-dry electrophoretic transfer system (Bio-Rad, Transblot system) for 30 minutes at 10 volts in transfer buffer (Life Technologies, Cat.# NP0006) containing 10% methanol. […] After the incubation the membrane was washed 3 times with 10 ml TTBS and then incubated for 1 hour with secondary antibodies: a goat anti-rabbit IgG conjugated to IRdye® 800CW (Li-Cor, Cat.#926-32211) and a goat anti-mouse IgG conjugated to IRdye® 680RD (Li-Cor, Cat.#926-68070) both diluted 1:10,000 in blocking buffer. The membrane was again washed 3 times with 10 ml TTBS and scanned on a Li-Cor Odyssey scanner. The bands corresponding to full length HER2 protein and to actin were quantified using the scanner software. Each HER2 band was normalized to the actin band and expressed as a percentage of HER2 protein from cells that were not treated with any anti-HER2 antibodies.

H522 cells = assay: H522 mouse tumor xenograft model; assay type: in vivo; conditions: FIG. 15; Example 16E 5 mg/kg; Example 17B 5 mg/kg; Kadcyla 10 mg/kg; IV single dose
SKOV3 cells = assay: SKOV3 mouse tumor xenograft model; assay type: in vivo; conditions: FIG. 16
TOV-21G cells = assay: TOV-21G mouse tumor xenograft model; assay type: in vivo; conditions: FIG. 14; Example 16E 5 mg/kg or 2 mg/kg; Kadcyla 10 mg/kg; IV single dose
Excerpt: (§1) Tumor growth inhibition (% TGI) was defined as the percent difference in median tumor volumes (MTVs) between treated and control groups.
In a PR response, the tumor volume was 50% or less of its Day 1 volume for three consecutive measurements during the course of the study, and equal to or greater than 13.5 mm^3 for one or more of these three measurements. In a CR response, the tumor volume was less than 13.5 mm3 for three consecutive measurements during the course of the study. An animal with a CR response at the termination of a study was additionally classified as a tumor-free survivor (TFS). Animals were monitored for regression responses.
Female NCr nu/nu were inoculated subcutaneously with TOV-21G cells (n=10 for each group). Test compounds or vehicle were dosed IV as a single dose on day 1 or as indicated. Tumor size was measured at the times indicated in FIGS. 8 to 18 using digital calipers. Tumor volume was calculated and was used to determine the delay in tumor growth. Mice were sacrificed when tumors reached a size of 800 to 1500 mm^3. Tumor volumes are reported as the mean±SEM for each group.

SNU-5 cells = assay: SNU5 mouse tumor xenograft model; assay type: in vivo; conditions: FIG. 13
Calu-3 cells = assay: Calu-3 mouse tumor xenograft model; assay type: in vivo; conditions: FIG. 17, 5 mg/kg IV single dose at day 1
NCI-N87 cells = assay: NCI-N87 mouse tumor xenograft model; assay type: in vivo; conditions: FIG. 12; Example 16F […] single dose day 1; trastuzumab 15 mg/kg + pertuzumab 15 mg/kg weekly for 3 weeks
MAXF_1162 HER2 3+ = MAXF_1162 HER2 3+ patient derived xenograft model; assay type: in vivo; conditions: FIG. 19, n=10
Method: as §1
(§2) Treatment efficacy was determined from the incidence and magnitude of regression responses of the tumor size observed during the study. […] In a PR response, the tumor volume was 50% or less of its Day 1 volume for three consecutive measurements during the course of the study, and equal to or greater than 13.5 mm^3 for one or more of these three measurements. In a CR response, the tumor volume was less than 13.5 mm3 for three consecutive measurements during the course of the study. An animal with a CR response at the termination of a study was additionally classified as a tumor-free survivor (TFS). Animals were monitored for regression responses.

BT474 tumor fragments = assay: BT474 mouse tumor xenograft model; assay type: in vivo; conditions: FIG. 20; 5 mg/kg or 2 mg/kg IV single dose at day 1
BRE-0333 HER2 1+ = BRE-0333 HER2 1+ patient derived xenograft model; assay type: in vivo; conditions: FIG. 18; 3 mg/kg IV single dose; n=8
Method: as §1, §2

[3] = test system: low HER2-expressing breast and gastric cancer models; assay: Low HER2-expressing breast and gastric cancer models; assay type: in vivo; conditions: conjugate single doses of 1 mg/kg or […]; Kadcyla at doses of 10 mg/kg and above
HER2-driven tumor models = assay: HER2-driven tumor models, combination with trastuzumab and pertuzumab; assay type: in vivo
[4] = in vivo
[5] = Pharmacokinetics and tolerability in non-human primates; conditions: therapeutic doses
SKBR3 cells [6] = assay: HER2 internalization in SKBR3 cells by fluorescence microscopy; assay type: cell-based; conditions: 90 minutes, in combination with trastuzumab-Alexa-647 and pertuzumab
Method: The effect of a combination of anti-HER2 antibodies on the HER2 internalization in SKBR3 cells was investigated by fluorescence microscopy. […] SKBR3 cells were seeded in 4 chamber microscope slides and allowed to attach by overnight growth in DMEM media (ATCC, Manassas, Va., Cat.#30-2002) with 10% fetal bovine serum (FBS) (Gibco®, Life Technologies, Grand Island, N.Y., Cat.#16140-071) at 37° in 5% CO2. […] The location of trastuzumab was visualized using fluorescence microscope.

[7] = test system: phosphorylated AKT in BT474 cells; assay: Ligand-independent HER2 signaling in BT474 cells, phospho-AKT western; assay type: cell-based; conditions: 10 μg/ml antibody, 4 hours, listed as HT19B
Method: The effect of anti-HER2 antibodies on HER2 signaling in BT474 cells (ATCC, HTB-20) was determined by measuring changes in the amount of phosphorylated AKT after a 4 hour antibody treatment. BT474 cells (300,000 cells) were plated in DMEM media with 10% FBS in each well of 6 well culture dishes and grown overnight at 37° in 5% CO2 atmosphere. The media was removed and replaced with fresh media containing 10 μg/ml of test antibody and incubated for 4 hours. The cells were washed once with ice cold PBS and lysed by addition of 200 μl of buffer containing 50 mM Tris HCl, pH 7.4, 150 mM NaCl, 1% Triton X-100, cOmplete Protease Inhibitor cocktail tablets (Roche, Indianapolis, Ind.) and PhosSTOP phosphatase Inhibitor cocktail tablets (Roche, Indianapolis, Ind.). Lysates were centrifuged at 15,000 rpm for 15 minutes at 4° to remove insoluble debris. The levels of phosphorylated AKT were determined by western analysis. […] The bands corresponding to AKT, phospho-AKT, and to actin were quantified using the scanner software. Each phospho-AKT band was normalized to the total AKT band and expressed as a percentage of phospho-AKT protein from cells that were not treated with any anti-HER2 antibodies.

[8] = with Trastuzumab and Pertuzumab, 0 hr
[9] = with Trastuzumab and Pertuzumab, 24 hrs
[10] = with Trastuzumab and Pertuzumab, […]

| Substance | Percent internalized (SKBR3 cells [1]; antibody alone, 0 hr) [%] | Percent internalized (SKBR3 cells [1]; antibody alone, 24 hrs) [%] | Percent internalized (SKBR3 cells [1]; antibody alone, […]) [%] | Percent internalized (SKBR3 cells [1]; [8]) [%] | Percent internalized (SKBR3 cells [1]; [9]) [%] | Percent internalized (SKBR3 cells [1]; with Trastuzumab, 0 hr) [%] | Percent internalized (SKBR3 cells [1]; with Trastuzumab, 24 hrs) [%] | Percent internalized (SKBR3 cells [1]; with Trastuzumab, […]) [%] | HER2 remaining [2] [%] | Percent internalized (SKBR3 cells [1]; [10]) [%] | also measured |
| --- | --- | --- | --- | --- | --- | --- | --- | --- | --- | --- | --- |
| XMT 1517: fully human anti-HER2 IgG1 monoclonal antibody, heavy chain SEQ ID NO: 1, light chain SEQ ID NO: 2 | 4 | 83 | 11 | 4 | 107 | 3 | 106 | 17 | 40 |  |  |
| XMT 1518: affinity matured fully human anti-HER2 IgG1 antibody, heavy chain SEQ ID NO: 3, light chain SEQ ID NO: 4 |  | 88 | 16 | 2 |  | 2 | 106 | 41 | 20 | 90 | full length HER2, percentage of untreated cells [2]: 78% |
| XMT 1519-(EG2-MI-(10 kDa PHF-BA-(AF-HPA-Ala))) [Example 16E] |  |  |  |  |  |  |  |  |  |  | tumor response (H522 cells): tumor retardation; complete responses (number of animals) (SKOV3 cells; 5 mg/kg IV single dose, n=10): 10; regressions (SKOV3 cells; 5 mg/kg IV single dose, n=10): 100%; tumor response (TOV-21G cells): tumor retardation; tumor free survivors (SNU-5 cells; 2 mg/kg IV single dose): 100%; tumor free survivors (SNU-5 cells; 5 mg/kg IV single dose): 100% |
| XMT 1519-(EG2-MI-(10 kDa PHF-BA-(AF-HPA-Ala))) [Example 16F] |  |  |  |  |  |  |  |  |  |  | remained tumor free (number of animals) (Calu-3 cells; Day 60): six; complete responses (number of animals) (Calu-3 cells; n=10): eight; partial responses (number of animals) (Calu-3 cells; n=10): two; regression responses (Calu-3 cells; n=10): 100%; partial response out of ten (NCI-N87 cells): one |
| XMT 1519-(EG2-MI-(10 kDa PHF-BA-(AF-HPA-Ala))) [Example 16H] |  |  |  |  |  |  |  |  |  |  | regression responses and tumor free survivors (MAXF_1162 HER2 3+; 1 mg/kg IV single dose at day 1): 100%; regression responses and tumor free survivors (MAXF_1162 HER2 3+; 3 mg/kg IV single dose at day 1): 100%; tumor response (BT474 tumor fragments): complete tumor regressions; tumor response (BRE-0333 HER2 1+): tumor retardation |
| XMT 1519-(EG2-MI-(PHF-BA-(AF-HPA-Ala))) |  |  |  |  |  |  |  |  |  |  | tumor response [3]: complete regression; efficacy in combination with trastuzumab and pertuzumab (HER2-driven tumor models): synergistic efficacy; pharmacokinetic profile [4]: excellent pharmacokinetic profile; tolerability [5]: well tolerated |
| XMT 1519: fully human anti-HER2 IgG1 monoclonal antibody, heavy chain SEQ ID NO: 5, light chain SEQ ID NO: 6 | 2 | 83 |  | 2 | 88 | 2 | 107 |  | 42 | 83 | effect on HER2 internalization and localization (SKBR3 cells [6]): promotes the internalization and trafficking of HER2 to the lysosomes |
| XMT 1520: affinity matured fully human anti-HER2 IgG1 antibody, heavy chain SEQ ID NO: 7, light chain SEQ ID NO: 8 | 2 | 78 | 14 | 3 | 101 | 2 | 100 | 23 | 31 | 89 | AKT phosphorylation, percentage of untreated cells [7]: about 30%; full length HER2, percentage of untreated cells [2]: 68% |
| rituximab-(EG2-MI-(10 kDa PHF-BA-(AF-HPA-Ala))) [Example 17B, reference compound] |  |  |  |  |  |  |  |  |  |  | tumor response (H522 cells): did not attain the threshold for therapeutic activity; tumor response (SKOV3 cells; Kadcyla 10 mg/kg, Example 17B 5 mg/kg, IV single dose): did not attain the threshold for therapeutic activity |

From patent publication US9738720B2, “Monoclonal antibodies against HER2 epitope and methods of use thereof” (Mersana Therapeutics, Inc., priority 2014, dated 2017)
